From patent US9029369B2, “Aprepitant L-proline composition and cocrystal” (Nuformix Limited, priority 2010, dated 2015)
Where two headings read alike, the source gives them in different places.

Columns and labels:
[1] = Dissolution study, USP Apparatus 2 (paddle), distilled water containing 2.2% SDS; format: physicochemical; conditions: 2.2% SDS in purified water
Description: Material providing 125 mg of aprepitant was used in each dissolution experiment and in each experiment the test sample was added directly to the dissolution media as a loose powder.
Analysis was carried out by HPLC/UV using an Agilent 1100/1200 series HPLC system with UV variable wavelength detection. Standards were prepared in acetonitrile at 0.14 mg/ml. All standard and sample solutions were filtered through 0.45 μm filters.

[2] = Stability study under accelerated conditions, 40° C./75% RH, examined by XRPD
[3] = low solubility and low permeability API; cited from earlier work
[4] = cited from earlier work
[5] = nanoparticulate formulation (marketed capsules, oral); cited from earlier work
[6] = 0 mins, 900 ml, 37.0° C., 100 rpm, material providing 125 mg aprepitant, triplicate
[7] = 180 mins (infinity time point), 37.0° C., 100 rpm

SMILES | mean dissolution value [1, 6] [%] | mean dissolution value ([1]; 1 min, 37.0° C., 100 rpm) | mean dissolution value ([1]; 2 mins, 37.0° C., 100 rpm) [%] | mean dissolution value ([1]; 3 mins, 37.0° C., 100 rpm) [%] | mean dissolution value ([1]; 4 mins, 37.0° C., 100 rpm) [%] | mean dissolution value ([1]; 5 mins, 37.0° C., 100 rpm) [%] | mean dissolution value ([1]; 10 mins, 37.0° C., 100 rpm) [%] | mean dissolution value ([1]; 15 mins, 37.0° C., 100 rpm) [%] | mean dissolution value ([1]; 20 mins, 37.0° C., 100 rpm) [%] | mean dissolution value ([1]; 30 mins, 37.0° C., 100 rpm) [%] | mean dissolution value ([1]; 45 mins, 37.0° C., 100 rpm) [%] | mean dissolution value ([1]; 60 mins, 37.0° C., 100 rpm) [%] | mean dissolution value [1, 7] [%] | other results
C[C@@H](O[C@H]1OCCN(Cc2n[nH]c(=O)[nH]2)[C@H]1c1ccc(F)cc1)c1cc(C(F)(F)F)cc(C(F)(F)F)c1.O.O=C(O)[C@@H]1CCCN1 | 0.0 | more than 93% | 95.7 | 95.6 | 95.8 | 95.1 | 95.5 | 95.9 | 96.0 | 96.2 | 96.8 | 97.0 | 99.2 | behaviour once dissolved (re-precipitation of the API) ([1]; up to 180 minutes): remained in solution with no re-precipitation of the API; mean dissolution value ([1]; 1 min, 37.0° C., 100 rpm, listed as 1:1:1 Aprepitant L-proline cocrystal): 93.4%; XRPD Characterization ([2]; 1 month): cocrystal; XRPD Characterization ([2]; 1 week): cocrystal; XRPD Characterization ([2]; 2 months): cocrystal; XRPD Characterization ([2]; 2 week): cocrystal; XRPD Characterization ([2]; 3 months): cocrystal; XRPD Characterization ([2]; 3 week): cocrystal; XRPD Characterization ([2]; 6 months): cocrystal; physical stability with respect to dissociation into starting components ([2]; six month period): stable; XRPD Characterization ([2]; time point 0): cocrystal
C[C@@H](O[C@H]1OCCN(Cc2nc(=O)[nH][nH]2)[C@H]1c1ccc(F)cc1)c1cc(C(F)(F)F)cc(C(F)(F)F)c1 [Crystalline Aprepitant, reference compound] | 0.0 | 18.5% | 34.4 | 44.2 | 52.2 | 57.6 | 70.1 | 77.2 | 80.4 | 85.4 | 87.3 | 89.3 | 94.6 | BCS class [3]: Class IV; solubility ([4]; in acetonitrile): slightly soluble; solubility ([4]; in ethanol): sparingly soluble; solubility ([4]; in isopropyl acetate): sparingly soluble; solubility ([4]; in water): practically insoluble; time to achieve the same level of dissolution that the cocrystal achieved within the first minute ([1]; 37.0° C., 100 rpm): ~180 min; mean absolute bioavailability [5]: 60-65%
